Results published in US3954793A, “1-(2-Propynyl)-1 H-indazole compounds” (priority 1973, dated 1976).
Like-named read-outs stand apart in the source and are kept apart here.

Legend:
[1] = tested on: German male cockroaches (Blatella Germanicus); test: topical application to thorax, 24 hour mortality of German male cockroaches; assay type: in vivo; settings: for percent insect mortality, synergist alone (mobam test doses): synergist doses of Table XXXX; for percent insect mortality, synergist alone (mobam test doses) / percent insect mortality, synergist alone (GS 13005 test doses): no insecticide; for percent insect mortality, synergist alone (GS 13005 test doses): synergist doses of Table XXXXI
Experimental: The synergistic effect with mobam of synergist compounds I-B, II-H, II-K and IV-C is further illustrated by the 24 hour mortality data of German male cockroaches (Blatella Germanicus) shown in Table XXXX. The synergists and insecticide were diluted in acetone and applied in small droplets to the thorax of the insect. These doses of synergist alone gave zero percent insect mortality.
The synergistic effect with GS 13005 of compounds I-B, II-H, II-K, II-P, II-Q, II-R and IV-C is illustrated by the 24 hour mortality of German male cockroaches shown in Table XXXXI. These doses of synergist alone caused zero percent insect mortality.

[2] = tested on: Rutgers A strain house flies; test: topical application, percent kill after 24 hours, resistant Rutgers A strain; assay type: in vivo, female); settings: for percent kill after 24 hours, with GS 13005: GS 13005 1.0 + synergist 5.0 μg/fly
How it was run: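 Synergist plus mobam, Diazinon or GS 13005 dissolved in acetone, applied as 1.0 μl to the thorax of CO2-anaesthetised 3-to-5 day old female Rutgers A (resistant) house flies; doses in μg/fly. Flies held 10 per dish, 3-5 dishes per treatment, with skim milk; mortality scored at 24 h.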

[3] = tested on: Wilson strain house flies; assay type: in vivo, Wilson strain (susceptible); settings: for Contact Synergistic Ratio, Pyrolan: LC50 pyrolan alone / LC50 with synergist
How it was run: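 Wilson strain house flies held at room temperature in glass jars coated with acetone-deposited insecticide film, alone or with synergist at 5:1 synergist:insecticide by weight.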

[4] = tested on: polyvalent resistant (CH strain) houseflies; test: whole plant or invertebrate; assay type: in vivo; settings: CH strain; for percent kill after 24 hours, with Dimetilan: Dimetilan 2 + synergist 4 μg/fly; for percent kill after 24 hours, with GS 13005: GS 13005 1 + synergist 2 μg/fly; for percent kill after 24 hours, with GS 13798: GS 13798 1 + synergist 2 μg/fly; for mortality at 10 µg/fly: Musca domestica, topical, 24 h, read-out: percent kill after 24 hours, synergist alone; for mortality at 10 µg/fly / percent kill after 24 hours, synergist alone: insecticide 0, synergist 10 μg/fly; for percent kill after 24 hours, with pyrethrum: Pyrethrum 2 + synergist 4 μg/fly
Experimental: The effect of O-(2-propynyl) oximes with Dimetilan and with GS 13798 was obtained from tests on polyvalent resistant (CH strain) houseflies that had been chilled and to the dorsal region of which was applied an acetone solution of synergist and insecticide at a ratio of two to one. Duplicate tests were performed using 10 four to five-day old female houseflies per test. After dosage, the flies were put in a plastic petri dish with cotton soaked in a sugar-water solution. These doses of insecticide used without synergist caused 10-40% mortality.
In Table IX, and in the tables following it, the doses of topically applied insecticides and of synergists unless otherwise noted are expressed as micrograms per fly (μg/fly).
The effect of compounds II-C, II-D and II-E with Dimetilan and GS 13798 was determined, following the procedure of Example 5, from tests on polyvalent resistant (CH strain) houseflies. These doses of insecticide used without synergist caused 10-40% mortality.
The synergistic effect with GS 13005 of compounds I-A, I-B, I-D, I-E, I-F, I-G and I-I was determined from topical application tests to IN/WHO strain, Rutgers A strain and polyvalent CH strain houseflies using the procedures of Example 5. The percent kills of the IN/WHO strain flies after 24 hours are shown in Table XXVIII; of the Rutgers A strain, in Table XXIX; and of the polyvalent CH strain, in Table XXX. The doses of insecticide alone to the CH strain files caused 10-40% mortality.
The synergistic effect with Diazinon and GS 13005 of various of the benzyl 2-propynyl ethers identified in Tables II and IIa was determined by topical application tests on IN/WHO strain, and Rutgers A strain and polyvalent, resistant, CH strain houseflies using the procedures of Example 5. The percent kills after 24 hours of IN/WHO strain flies are shown in Table XXXI; of Rutgers A strain flies, in Table XXXII; and of CH strain flies, in Table XXXIII. The doses of insecticide alone to the CH strain flies caused 10-40% mortality.
The synergistic effect with pyrethrum of various synergist compounds was determined by topical application tests on polyvalent, resistant CH strain houseflies following the procedure of Example 5. Application of the insecticide alone caused 10-40% mortality.

[5] = GS 13005 dose 0.08 + synergist 0.40, pretreated with synergist two hours before insecticide
[6] = GS 13005 dose 0.08 + synergist 4.0, cockroaches
[7] = Mobam dose 0.12 + synergist 0.60, pretreated with synergist two hours before insecticide
[8] = Mobam dose 0.16 + synergist 0.80, cockroaches
[9] = Diazinon 1.0 + synergist 3.0 μg/fly
[10] = Diazinon 3.0 + synergist 3.0 μg/fly
[11] = Mobam 0.30 + synergist 1.5 μg/fly
[12] = insecticide 0, synergist 5.0 μg/fly
[13] = synergist to insecticide 5:1 by weight
[14] = Diazinon 1.5 + synergist 7.5 μg/fly
[15] = Mobam 0.15 + synergist 0.75 μg/fly
[16] = Mobam 0.60 + synergist 3.0 μg/fly
[17] = insecticide 0, synergist 7.5 μg/fly
[18] = Diazinon 3.0 + synergist 15 μg/fly
[19] = insecticide 0, synergist 15 μg/fly
[20] = Mobam 0.40 + synergist 2.0 μg/fly

Structure (SMILES)	24 hour mortality, with GS 13005 [1, 5] [%]	percent insect mortality, synergist alone (GS 13005 test doses) [1]	percent kill after 24 hours, with GS 13005 [2] [%]	percent kill after 24 hours, with Mobam [2, 11] [%]	percent kill after 24 hours, synergist alone [2, 12] [%]	Contact Synergistic Ratio, Pyrolan [3, 13]	Contact Synergistic Ratio, Carbaryl ([3]; in vivo)	percent kill after 24 hours, with GS 13005 [4] [%]	mortality at 10 µg/fly [4] [%]	percent kill after 24 hours, synergist alone [4] [%]	percent kill after 24 hours, synergist alone [2, 17] [%]	also measured
C#CCON=Cc1cccc([N+](=O)[O-])c1 [I-B]	95	zero	100	40	0	35	270	–	–	–	–	24 hour mortality, with GS 13005 [1, 6]: 40%; 24 hour mortality, with Mobam [1, 7]: 80%; 24 hour mortality, with Mobam [1, 8]: 50%; percent insect mortality, synergist alone (mobam test doses) [1]: zero; percent kill after 24 hours, with Diazinon [2, 9]: 5%; percent kill after 24 hours, with Diazinon [2, 10]: 90%
C#CCON=C(C)c1ccc(Cl)cc1 [I-D]	–	–	–	95	–	25	177	100	0	0	0	percent kill after 24 hours, with Dimetilan [4]: 100%; percent kill after 24 hours, with GS 13798 [4]: 100%; percent kill after 24 hours, with Diazinon [2, 14]: 69%; percent kill after 24 hours, with Mobam [2, 15]: 19%; percent kill after 24 hours, with Mobam [2, 16]: 100%
C#CCON=C(C)c1ccc2ccccc2c1 [I-F]	–	–	95	38	0	50	200	100	0	0	–	percent kill after 24 hours, with Dimetilan [4]: 100%; percent kill after 24 hours, with pyrethrum [4]: 35%; percent kill after 24 hours, with Diazinon [2, 9]: 5%; percent kill after 24 hours, with Diazinon [2, 10]: 95%
C#CCON=Cc1ccc(Cl)cc1Cl [I-G]	–	–	–	–	–	–	–	100	0	0	0	percent kill after 24 hours, with pyrethrum [4]: 47%; percent kill after 24 hours, with Diazinon [2, 14]: 60%; percent kill after 24 hours, with Diazinon [2, 18]: 100%; percent kill after 24 hours, synergist alone [2, 19]: 0%
C#CCON=Cc1cccc2ccccc12 [I-I]	–	–	–	–	–	–	–	47	0	0	0	percent kill after 24 hours, with Diazinon [2, 14]: 0%; percent kill after 24 hours, with Diazinon [2, 18]: 53%; percent kill after 24 hours, synergist alone [2, 19]: 0%
C#CCOCc1ccc(Cl)c(Cl)c1 [II-C]	–	–	–	20	–	15	–	–	0	0	0	percent kill after 24 hours, with Dimetilan [4]: 100%; percent kill after 24 hours, with Mobam [2, 16]: 67%; Contact Synergistic Ratio, Carbaryl ([3]; LC50 carbaryl alone / LC50 with synergist, synergist to insecticide 5:1 by weight): 100
C#CCOCc1ccc(Cl)c(Cl)c1Cl [II-D]	–	–	–	–	–	30	200	–	0	0	0	percent kill after 24 hours, with Dimetilan [4]: 100%; percent kill after 24 hours, with GS 13798 [4]: 100%; percent kill after 24 hours, with pyrethrum [4]: 30%; percent kill after 24 hours, with Mobam [2, 16]: 92%
C#CCOCc1c(Cl)ccc(Cl)c1Cl [II-E]	–	–	–	70	–	20	120	100	10	10	0	percent kill after 24 hours, with GS 13798 [4]: 100%; percent kill after 24 hours, with Mobam [2, 15]: 17%; percent kill after 24 hours, with Mobam [2, 16]: 99%
C#CCOCc1cc(Cl)c(Cl)cc1Cl [II-F]	–	–	–	–	–	15	150	–	–	–	–	–
C#CCOCc1c(Cl)cccc1Cl [II-H]	100	zero	100	–	7	40	300	–	–	–	–	24 hour mortality, with Mobam [1, 7]: 90%; percent insect mortality, synergist alone (mobam test doses) [1]: zero; percent kill after 24 hours, with Mobam [2, 20]: 100%
C#CCOCc1c(Cl)cccc1[N+](=O)[O-] [II-K]	100	zero	100	–	0	–	–	–	–	–	–	24 hour mortality, with Mobam [1, 7]: 100%; percent insect mortality, synergist alone (mobam test doses) [1]: zero; percent kill after 24 hours, with Mobam [2, 20]: 97%
C#CCOCc1ccccc1[N+](=O)[O-] [II-P, 2-nitrobenzyl 2-propynyl ether]	90	zero	92	–	0	–	–	–	–	–	–	24 hour mortality, with GS 13005 [1, 6]: 60%
C#CCOCc1ccc([N+](=O)[O-])cc1 [II-Q, 4-nitrobenzyl 2-propynyl ether]	95	zero	100	–	0	–	–	–	–	–	–	–
C#CCOCc1cccc2ccccc12 [II-R, α-napthylmethyl 2-propynyl ether]	100	zero	55	–	0	–	–	–	–	–	–	–
C#CCOC(c1ccc(Cl)cc1)C(C)[N+](=O)[O-] (centres unmarked) [IV-C]	90	zero	95	–	0	–	–	–	–	–	–	24 hour mortality, with GS 13005 [1, 6]: 30%; 24 hour mortality, with Mobam [1, 7]: 60%; 24 hour mortality, with Mobam [1, 8]: 40%; percent insect mortality, synergist alone (mobam test doses) [1]: zero; percent kill after 24 hours, with Diazinon [2, 10]: 19%
